The source of these data is patent publication US6897306B2, “3-heterocyclylpropanohydroxamic acids” (Pfizer Products, Inc., priority 1999, dated 2005).

A short description of data set [1]: Dynamic Vapour Sorption (moisture sorption). In kind it is physicochemical. The protocol:
Melting points were determined using open glass capillary tubes and a Gallenkamp melting point apparatus and are uncorrected. Nuclear magnetic resonance (NMR) data were obtained using Varian Unity Inova-400, Varian Unity Inova-300 or Bruker AC300 spectrometers and are quoted in parts per million from tetramethylsilane. Mass spectral (MS) data were obtained on a Finnigan Mat. TSQ 7000 or a Fisons Instruments Trio 1000. The calculated and observed ions quoted refer to the isotopic composition of lowest mass. Infra red (1R) spectra were measured using a Nicolet Magna 550 Fourier transform infra-red spectrometer. Flash chromatography refers to column chromatography on silica gel (Kieselgel 60, 230-400 mesh, from E. Merck, Darmstadt. Kieselgel 60 F254 plates from E. Merck were used for TLC, and compounds were visualised using UV light, 5% aqueous potassium permanagate or Dragendorff's reagent (oversprayed with aqueous sodium nitrite). Thermal analyses by Differential Scanning Calorimetry (DSC) and ThermoGravimetric Analysis (TGA) were obtained using Perkin Elmer DSC7 and TGA7. Moisture sorption characteristics were recorded using Surface Measurement Systems Ltd. Automated Water Sorption Analyser DVS 1. Water content was determined on a Mitsubishi CA100 (Coulometric Karl Fisher Titrator). Powder X-ray diffraction (PXRD) pattern was determined using a Siemens D5000 powder X-ray diffractometer fitted with an automatic sample changer, a theta-theta goniometer, automatic beam divergence slits, a secondary monochromator and a scintillation counter. Other measurements were taken using standard equipment. Hexane refers to a mixture of hexanes (hplc grade) b.p. 65-70° C. Ether refers to diethyl ether. Acetic acid refers to glacial acetic acid. 1-Hydroxy-7-aza-1H-1,2,3-benzotriazole (HOAt), N-[(dimethylamino)-1H-1,2,3-triazolo[4,5-b]pyridin-1-ylmethylene]-N-methylmethaninium hexafluorophosphate N-oxide (HATU) and 7-azabenzotriazol-1-yloxytris(pyrrolidino)phosphonium hexafluorophosphate (PyAOP) were purchased from PerSeptive Biosystems U.K. Ltd. “DIPE” refers to diisopropyl ether. Reverse-phase silica gel for flash chromatography was obtained from Fluka (Fluka 100, C18, 40-63μ). Pentane refers to High Performance Liquid Chromatography (HPLC) grade n-pentane (b.pt.35-37° C.). Nomenclature has been allocated using a program available from IUPAC. Standard abbreviations are used throughout, e.g. “Me” is methyl, “Et” is ethyl, “Pr” is propyl, “Ph” is phenyl, etc. It was noticed that during certain repetitions of the methods disclosed in the Examples and Preparations that some racemisation appeared to have taken place. It was found in some cases that specific desired enantiomers can be separated from mixtures thereof by routine methods such as by differential crystallisation. • ^aHPLC autopurification performed using 2 columns—Phenomonex LUNA C8 150×21.2 mm, 10 μm and Phenomonex […] C18 150×21.2 mm, […], eluting with a gradient system of organic solvent [ammonium acetate (aq) 100 mM:acetonitrile (1:9)]:aqueous solvent [ammonium acetate (aq) 100 mM:acetonitrile (9:1)] • ^bHPLC autopurification performed using 2 columns—Phenomonex LUNA C8 150×21.2 mm, 10 μm and Phenomonex […] C18 150×21.2 mm, 5 μm, eluting with a gradient system of organic solvent (acetonitrile):aqueous solvent (0.1% aqueous trifluoroacetic acid)

Data set [2] concerns keratinocyte migration (MMP-1 dependent). As to conditions: collagen type I matrix in vitro; cited from earlier work.

As to `NC(=O)c1noc([C@H](CCCC2CCCCC2)CC(=O)NO)n1` [Example 2(b), 5-{(1R)-4-Cyclohexyl-1-[2-(hydroxyamino)-2-oxoethyl]butyl}-1,2,4-oxadiazole-3-carboxamide Monohydrate], the “Dynamic Vapour Sorption” value in data set [1] (2% RH (30° C.)) is reported as 4.84 % w/w; in data set [1] (20% RH (30° C.)), 5.17 % w/w; in data set [1] (below 1% RH (30° C.)), “significant dehydration”.

Consider `NC(=O)c1noc([C@H](CCCC2CCCCC2)CC(=O)NO)n1` [Example 2(c), 5-{(1R)-4-Cyclohexyl-1-[2-(hydroxyamino)-2-oxoethyl]butyl}-1,2,4-oxadiazole-3-carboxamide (Anhydrous)], for which the figures for the “Dynamic Vapour Sorption” value in data set [1] (15% RH (30° C.)) and in data set [1] (30% RH (30° C.)) were 0.18 % w/w and 0.23 % w/w, respectively. Also, the “Dynamic Vapour Sorption, hydration behaviour” value in data set [1] (60% RH (30° C.), converting to the monohydrate (XRD)) is “hydrates slowly”. Moreover, in data set [1] (90% RH (30° C.)), the “Dynamic Vapour Sorption, equilibrium” value amounted to 5.3 % w/w.

For orientation: melting point means the temperature, or range, at which the solid turns liquid. Consider `O=C(C[C@@H](CCCC1CCCCC1)c1nc(C(=O)NCc2ccccn2)no1)NO` [Example 10, 5-{(1R)-4-Cyclohexyl-1-[2-(hydroxyamino)-2-oxoethyl]butyl}-N-(2-pyridinylmethyl) -1,2,4-oxadiazole-3-carboxamide], for which the melting point was 128 to 130 °C.

`O=C(O)CNC(=O)c1noc([C@H](CCCC2CCCCC2)CC(=O)NO)n1` [Example 11, 2-{[(5-{(1R)-4-Cyclohexyl-1-[2-(hydroxyamino)-2-oxoethyl]butyl}-1,2,4-oxadiazol-3-yl)carbonyl]amino}acetic Acid] returned a melting point of 141 to 142 °C.

With `O=C(C[C@@H](CCCC1CCCCC1)c1nc(C(=O)N2CC(N3CCOCC3)C2)no1)NO` [Example 14, (3R)-6-Cyclohexyl-N-hydroxy-3-(3-{[3-(4-morpholinyl)-1-azetidinyl]carbonyl}-1,2,4-oxadiazol-5-yl)hexanamide], the melting point was 52 to 63 °C.

Turning to `CNC(=O)[C@H](Cc1ccc(OC)cc1)NC(=O)[C@@H](CC(=O)NO)CC(C)C` [SC44463], the “inhibition of keratinocyte migration” value in data set [2] is given as “completely inhibited”.
